How the values were obtained:
[1] = target: T1, Avi-KRAS G12R (1-169) GppNHp/RAF1 RBD-3xFLAG (52-151) (Homo sapiens, UniProt P01116, G12R); test: Raf1-KRAS G12R-GppNHP disruption HTRF assay (Biological Example 1); assay type: binding
T1 construct: Avi-KRAS G12R (1-169)
Outline: (§1)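 Compounds were tested for disruption of KRAS–RAF1 RBD binding by HTRF in 50 mM Tris pH 7.5, 100 mM NaCl, 5 mM MgCl2, 0.1% BSA, 0.01% Tween, 10% DMSO. Protein mix was incubated 1 h at room temperature with shaking, then detection reagents added for another 1 h. Activity expressed as percent of DMSO control.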

[2] = target: T2, Avi-KRAS G12D (1-169) GppNHp/RAF1 RBD-3xFLAG (52-151) (Homo sapiens, UniProt P01116, G12D); test: Raf1-KRAS G12D-GppNHP disruption HTRF assay (Biological Example 1); assay type: binding
T2 construct: Avi-KRAS G12D (1-169)
T2 sequence (P01116 1-169 isoform P01116-2 G12D): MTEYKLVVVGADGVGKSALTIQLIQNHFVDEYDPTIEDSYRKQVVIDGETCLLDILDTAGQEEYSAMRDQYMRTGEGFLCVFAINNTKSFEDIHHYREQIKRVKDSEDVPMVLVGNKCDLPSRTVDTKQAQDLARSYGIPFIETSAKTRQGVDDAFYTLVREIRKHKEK
Outline: as §1

[3] = target: T3, Avi-KRAS G12V (1-169) GppNHp/RAF1 RBD-3xFLAG (52-151) (Homo sapiens, UniProt P01116, G12V); test: Raf1-KRAS G12V-GppNHP disruption HTRF assay (Biological Example 1); assay type: binding
T3 construct: Avi-KRAS G12V (1-169)
T3 sequence (P01116 1-169 isoform P01116-2 G12V): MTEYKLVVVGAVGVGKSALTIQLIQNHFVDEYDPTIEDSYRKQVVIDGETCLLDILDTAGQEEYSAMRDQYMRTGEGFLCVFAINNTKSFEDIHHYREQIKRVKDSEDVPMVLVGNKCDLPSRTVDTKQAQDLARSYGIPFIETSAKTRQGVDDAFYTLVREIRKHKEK
Outline: as §1

SW620 cells (KRAS G12V) = test: Cell-based pERK HTRF assay in SW620 cell (Biological Example 4); conditions: Homo sapiens, SW-620, SW620 (KRAS G12V) cells, pERK HTRF
Outline: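 This assay measures inhibition of ERK phosphorylation downstream of KRAS G12V in intact SW620 cells. Compounds are applied for 4 h over nine half-log concentrations starting at 1 μM, and pERK is quantified by HTRF.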

[4] = target: T4, Avi-KRAS WT (1-169) GppNHp/RAF1 RBD-3xFLAG (52-151) (Homo sapiens, UniProt P01116); test: Raf1-KRAS WT-GppNHP disruption HTRF assay (Biological Example 1); assay type: binding
T4 construct: Avi-KRAS WT (1-169)
T4 sequence (P01116 1-169 isoform P01116-2): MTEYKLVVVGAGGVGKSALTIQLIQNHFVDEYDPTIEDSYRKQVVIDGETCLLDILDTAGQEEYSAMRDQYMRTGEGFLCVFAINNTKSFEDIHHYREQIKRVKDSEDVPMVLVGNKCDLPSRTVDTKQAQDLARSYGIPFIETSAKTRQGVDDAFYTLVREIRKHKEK
Outline: as §1

GP2d cells (KRAS G12D) = test: Cell-based pERK HTRF assay in GP2d cell (Biological Example 2); conditions: GP2d, GP2d (KRAS G12D) cells, pERK HTRF
Outline: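 Cells grown in DMEM with 10% FBS were exposed to compound for 60 min at 0.25% DMSO, using a 9-point half-log series starting at 1 μM or 100 nM. Lysates were then mixed with d2 and Eu cryptate antibodies for 4–24 h at room temperature, and pERK was read by HTRF.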

[5] = KRAS G12R, GppNHp-loaded, class symbols
[6] = KRAS G12D, GppNHp-loaded, class symbols
[7] = KRAS G12V, GppNHp-loaded, class symbols
[8] = KRAS WT, GppNHp-loaded, class symbols
[9] = KRAS G12R, GppNHp-loaded, Table 11
[10] = KRAS G12D, GppNHp-loaded, Table 11
[11] = KRAS G12V, GppNHp-loaded, Table 11
[12] = KRAS WT, GppNHp-loaded, Table 11

T1 sequence (P01116 1-169 isoform P01116-2 G12R): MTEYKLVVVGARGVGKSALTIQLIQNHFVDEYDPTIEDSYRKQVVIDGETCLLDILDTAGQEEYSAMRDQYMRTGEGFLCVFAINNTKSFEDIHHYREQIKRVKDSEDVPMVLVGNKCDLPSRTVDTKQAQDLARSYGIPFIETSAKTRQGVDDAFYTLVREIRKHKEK

Compound	IC50 ([1]; KRAS G12R-GppNHp/RAF1 RBD HTRF)	IC50 ([2]; KRAS G12D-GppNHp/RAF1 RBD HTRF)	IC50 ([3]; KRAS G12V-GppNHp/RAF1 RBD HTRF)	IC50 (SW620 cells (KRAS G12V))	IC50 ([4]; KRAS WT-GppNHp/RAF1 RBD HTRF)	IC50 (GP2d cells (KRAS G12D))	IC50 [1, 5]	IC50 [2, 6]	IC50 [3, 7]	IC50 (SW620 cells (KRAS G12V); class symbols)	IC50 [4, 8]	IC50 (GP2d cells (KRAS G12D); class symbols)	IC50 [1, 9]	IC50 [2, 10]	IC50 [3, 11]	IC50 [4, 12]
C[C@@H]1CC[C@@H](O)CN1c1nc(OC[C@@]23CCCN2C[C@H](F)C3)nc2c(F)c(-c3ccc(F)c4sc(N)c(C#N)c34)c(C(F)(F)F)cc12 [Compound 314]	100 to 1000 nM	100 to 1000 nM	100 to 1000 nM	< 100 nM	100 to 1000 nM	< 100 nM	–	–	–	–	–	–	–	–	–	–
N#Cc1c(N)sc2c(F)ccc(-c3c(C(F)(F)F)cc4c(N5CCC[C@H](CO)C5)nc(OC[C@@]56CCCN5C[C@H](F)C6)nc4c3F)c12 [Compound 310]	100 to 1000 nM	100 to 1000 nM	1000 to 10000 nM	100 to 1000 nM	100 to 1000 nM	< 100 nM	–	–	–	–	–	–	–	–	–	–
CCN(C)C(=O)N1CC[C@H](N(CC)c2nc(OC[C@@]34CCCN3C[C@H](F)C4)nc3c(F)c(-c4ccc(F)c5sc(N)c(C#N)c45)c(C(F)(F)F)cc23)C1 (atropisomer, axis not shown) [Compound 582]	–	–	–	–	–	–	< 100 nM	< 100 nM	< 100 nM	< 100 nM	< 100 nM	< 100 nM	–	–	–	–
CCN(c1nc(OC[C@@]23CCCN2C[C@H](F)C3)nc2c(F)c(-c3ccc(F)c4sc(N)c(C#N)c34)c(C(F)(F)F)cc12)[C@H]1CCN(C(=O)c2cc(C)no2)C1 (atropisomer, axis not shown) [Compound 771]	–	–	–	–	–	–	< 100 nM	< 100 nM	< 100 nM	< 100 nM	< 100 nM	< 100 nM	–	–	–	–
CO[C@@H]1C[C@@H](COc2nc(N(C)[C@H]3CCN(C(C)=O)[C@H]3C)c3cc(C(F)(F)F)c(-c4ccc(F)c5sc(N)c(C#N)c45)c(F)c3n2)N(C)C1 [Compound 238]	–	–	–	> 1000 nM	–	> 1000 nM	–	–	–	–	–	–	> 10000 nM	> 10000 nM	> 10000 nM	> 10000 nM
CCN(c1nc(OC[C@@]23CCCN2C[C@H](F)C3)nc2c(F)c(-c3ccc(F)c4sc(N)c(C#N)c34)c(C(F)(F)F)cc12)[C@H]1CCN(C(=O)C2COC2)C1 (atropisomer, axis not shown) [Compound 580]	–	–	–	–	–	–	< 100 nM	< 100 nM	< 100 nM	< 100 nM	< 100 nM	< 100 nM	–	–	–	–
CCN(c1nc(OC[C@@]23CCCN2C[C@H](F)C3)nc2c(F)c(-c3ccc(F)c4sc(N)c(C#N)c34)c(C(F)(F)F)cc12)[C@H]1CCN(C(=O)COC)C1 (atropisomer, axis not shown) [Compound 561]	< 100 nM	< 100 nM	< 100 nM	< 100 nM	< 100 nM	< 100 nM	–	–	–	–	–	–	–	–	–	–
N#Cc1c(N)sc2c(F)ccc(-c3c(C(F)(F)F)cc4c(N5CC6(CC6)C5)nc(OC[C@@]56CCCN5C[C@H](F)C6)nc4c3F)c12 [Compound 204]	–	–	–	100 to 1000 nM	–	100 to 1000 nM	–	–	–	–	–	–	1000 to 10000 nM	1000 to 10000 nM	1000 to 10000 nM	1000 to 10000 nM
CCN(c1nc(OC[C@@]23CCCN2C[C@H](F)C3)nc2c(F)c(-c3ccc(F)c4sc(N)c(C#N)c34)c(C(F)(F)F)cc12)[C@H]1CCN(C(=O)[C@@H]2CCCO2)C1 (atropisomer, axis not shown) [Compound 745]	–	–	–	–	–	–	< 100 nM	< 100 nM	< 100 nM	< 100 nM	< 100 nM	< 100 nM	–	–	–	–
CCN(c1nc(OC[C@@]23CCCN2C[C@H](F)C3)nc2c(F)c(-c3ccc(F)c4sc(N)c(C#N)c34)c(C(F)(F)F)cc12)[C@H]1CCN(C(=O)OC)[C@H]1C (atropisomer, axis not shown) [Compound 799]	–	–	–	–	–	–	1000 to 10000 nM	1000 to 10000 nM	1000 to 10000 nM	100 to 1000 nM	100 to 1000 nM	100 to 1000 nM	–	–	–	–
CCN(c1nc(OC[C@@]23CCCN2C[C@H](F)C3)nc2c(F)c(-c3ccc(F)c4sc(N)c(C#N)c34)c(C(F)(F)F)cc12)[C@H]1C[C@@H](C)N(C(=O)c2ccon2)C1 (atropisomer, axis not shown) [Compound 783]	–	–	–	–	–	–	100 to 1000 nM	100 to 1000 nM	100 to 1000 nM	< 100 nM	100 to 1000 nM	< 100 nM	–	–	–	–
C[C@H]1C[C@H](O)CCN1c1nc(OC[C@@]23CCCN2C[C@H](F)C3)nc2c(F)c(-c3ccc(F)c4sc(N)c(C#N)c34)c(C(F)(F)F)cc12 [Compound 246]	–	–	–	< 100 nM	–	< 100 nM	–	–	–	–	–	–	100 to 1000 nM	100 to 1000 nM	100 to 1000 nM	100 to 1000 nM
N#Cc1c(N)sc2c(F)ccc(-c3c(C(F)(F)F)cc4c(N5CCO[C@@H](CO)C5)nc(OC[C@@]56CCCN5C[C@H](F)C6)nc4c3F)c12 [Compound 282]	100 to 1000 nM	< 100 nM	100 to 1000 nM	< 100 nM	< 100 nM	< 100 nM	–	–	–	–	–	–	–	–	–	–
C[C@@H]1[C@H](N(C)c2nc(OC[C@@]34CCCN3C[C@H](F)C4)nc3c(F)c(-c4ccc(F)c5sc(N)c(C#N)c45)c(C(F)(F)F)cc23)CCN1C(=O)C(C)(C)C [Compound 312]	100 to 1000 nM	100 to 1000 nM	100 to 1000 nM	< 100 nM	100 to 1000 nM	< 100 nM	–	–	–	–	–	–	–	–	–	–
CN(c1nc(OC[C@@]23CCCN2C[C@H](F)C3)nc2c(F)c(-c3ccc(F)c4sc(N)c(C#N)c34)c(C(F)(F)F)cc12)[C@H]1CC[C@@H](O)C1 [Compound 309]	100 to 1000 nM	100 to 1000 nM	100 to 1000 nM	< 100 nM	100 to 1000 nM	< 100 nM	–	–	–	–	–	–	–	–	–	–
CN(c1nc(OC[C@@]23CCCN2C[C@H](F)C3)nc2c(F)c(-c3ccc(F)c4sc(N)c(C#N)c34)c(C(F)(F)F)cc12)[C@@H]1CC[C@H](O)C1 [Compound 315]	1000 to 10000 nM	100 to 1000 nM	1000 to 10000 nM	< 100 nM	100 to 1000 nM	< 100 nM	–	–	–	–	–	–	–	–	–	–
